Data on 6 compounds can be found in patent publication US12466804B2 (BRISTOL-MYERS SQUIBB COMPANY, priority 2019, dated 2025).

A word on the IC50: it is the concentration needed to halve the response being measured.

The structures appear in SMILES notation.

One experiment has as its system nerve-injured mice. Particulars: pretreatment, nerve-injured mice (Inoue et al.); cited from earlier work.
The next experiment relates to IPF patients. Particulars: 26-week clinical trial in IPF patients (Palmer et al.); cited from earlier work.
For the next experiment, the system named is UUO mice. The conditions noted are these: cited from earlier work.
For experiment [1], the system named is human foetal lung fibroblasts. The conditions noted are these: Tager et al.; cited from earlier work.
For experiment [2], the system named is pancreatic cancer cell lines. Particulars: cited from earlier work.
Experiment [3] has as its system mouse epithelial renal cell line, MCT. The conditions noted are these: MCT cells, co-treatment with LPA; cited from earlier work.
A further experiment deals with T1, human LPA1 (Homo sapiens, UniProt Q92633).
T1 construct: expressed in transfected cells; host or cells: Chinese hamster ovary (CHO) cells
T1 sequence (Q92633 whole entry): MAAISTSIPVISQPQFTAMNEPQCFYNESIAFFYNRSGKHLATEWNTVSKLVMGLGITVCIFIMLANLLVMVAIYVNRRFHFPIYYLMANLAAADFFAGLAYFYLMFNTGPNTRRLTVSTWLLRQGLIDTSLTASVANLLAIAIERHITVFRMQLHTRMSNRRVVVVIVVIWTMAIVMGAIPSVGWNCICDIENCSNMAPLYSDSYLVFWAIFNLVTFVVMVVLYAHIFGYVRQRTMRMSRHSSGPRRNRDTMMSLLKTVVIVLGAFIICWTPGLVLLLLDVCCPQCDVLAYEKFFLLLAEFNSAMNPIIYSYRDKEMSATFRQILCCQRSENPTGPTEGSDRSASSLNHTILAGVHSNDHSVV
Put plainly: LPA1 functional antagonist assay (LPA-induced calcium flux). The conditions noted are these: CHO cells overexpressing human LPA1; calcium flux induced by 10 nM LPA; read-out: hLPA1 IC50. It counts as cell-based. As for the experimental part:
The effectiveness of compounds of the present invention as LPA1 inhibitors can be determined in an LPA1 functional antagonist assay as follows:
The cells were then equilibrated to room temperature for 30 minutes before the assay. […] IC50 values were determined by fitting data to a 4-parameter logistic equation (GraphPad Prism, San Diego CA).

On to `C[C@@H](N)[C@H]1CC[C@H](C(=O)Nc2ccncc2)CC1` [Example Y-27632], for which the allodynia and hyperalgesia result with nerve-injured mice is on record as “completely abolished”.
`Cc1noc(-c2ccc(-c3ccc(C4(C(=O)O)CC4)cc3)cc2)c1NC(=O)O[C@H](C)c1ccccc1` [BMS-986020]: the “rate of FVC (forced vital capacity) decline” value in the experiment on IPF patients is “significantly reduce”.
As to `Cc1noc(-c2ccc(CSCCC(=O)O)cc2)c1NC(=O)OC(C)c1ccccc1Cl` (stereo not shown) [Ki16425], the “development of renal fibrosis” value in the experiment with UUO mice is recorded as “closely resembled the profile of LPA1 (−/−) mice”. Also, in experiment [1], the “chemotaxis of human foetal lung fibroblasts induced by BAL from IPF patients” value is “blocked”. The “LPA-induced and ascites-induced invasion activity” value in experiment [2] (highly peritoneal metastatic pancreatic cancer cell line) is listed as “blocked”. Besides, the “in vitro migration in response to LPA and peritoneal fluid (ascites) from pancreatic cancer patients” value in experiment [2] (pancreatic cancer cell lines (Yamada et al.)) is on record as “effectively blocked”. The “LPA-induced expression of the profibrotic cytokine CTGF” value in experiment [3] was “almost completely suppressed”.
Consider `Cc1nc(-c2nnn(C)c2CNc2nccc(-c3ccccn3)n2)ccc1OC[C@@H]1CC[C@H]1C(=O)O` (racemic) [Example 26, (±)-(1R,2R)-2-(((2-methyl-6-(1-methyl-5-(((4-(pyridin-2-yl)pyrimidin-2-yl)amino)methyl)-1H-1,2,3-triazol-4-yl)pyridin-3-yl)oxy)methyl)cyclobutane-1-carboxylic acid], for which the IC50 at human LPA1 was 0.056 µM.
With `Cc1nc(-c2nnn(C)c2CNc2nccc(C(C)C)n2)ccc1OC[C@@H]1CC[C@H]1C(=O)O` (racemic) [Example 23, (±)-(1R,2R)-2-(((6-(5-(((4-isopropyl-pyrimidin-2-yl)amino)methyl)-1-methyl-1H-1,2,3-triazol-4-yl)-2-methylpyridin-3-yl)oxy)methyl)cyclobutane-1-carboxylic acid], the IC50 on human LPA1 worked out at 0.117 µM.
On to `Cc1nc(-c2nnn(C)c2CNc2nccc(-c3ccccc3)n2)ccc1OC[C@@H]1CC[C@H]1C(=O)O` (racemic) [Example 35, (±)-(1R,2R)-2-(((2-Methyl-6-(1-methyl-5-(((4-phenylpyrimidin-2-yl)amino)methyl)-1H-1,2,3-triazol-4-yl)pyridin-3-yl)oxy)methyl)cyclobutanecarboxylic acid], for which the IC50 on human LPA1 came out at 0.049 µM.
